As usually defined, the melting point is the temperature of the solid-liquid transition.

Among the data in a melting point compilation (Tetko et al.; mined from patent text by program, amines drawn as free bases though some values may be those of a salt) are melting point values, retold here.

Compound `Cc1ccc2cccc(OCc3c(Cl)ccc(N(C)C(=O)CNC(=O)C=Cc4ccc(-c5nnn[nH]5)cc4)c3Cl)c2n1` registered a melting point of 196 to 208 °C.

Compound `CCOC(=O)C(=O)Nc1c([N+](=O)[O-])cc(Br)c2cccnc12` returned a melting point of 213 to 215 °C.

Turning to `CC(C)C[C@H](NC(=O)N1CCOCC1)C(=O)N[C@@H](CCc1ccccc1)C(=O)c1oc(-c2ccccc2)nc1-c1ccccc1`, the melting point is 83 to 85 °C.

As for `O=C(Nc1n[nH]c(=S)s1)N[C@@H](Cc1c(F)c(F)c(F)c(F)c1F)C(=O)N1CCN(c2ccccn2)CC1`, the melting point was 233 to 235 °C.

Turning to `Cn1nc(-c2ccccc2)c(CC(=O)O)c1-c1ccccc1`, the melting point lay in the range of 170 to 172 °C.

`CCCNC(=O)CCCn1c(CCC)nc2c(N)nc3ccccc3c21` showed a melting point of 161 to 163 °C.

As to `O=c1ccc(-c2c(-c3ccccc3)nn3ccccc23)nn1[C@H]1CC[C@@H](C(=O)O)CC1`, the melting point was 193 to 195 °C.

`O=C(O)CON=c1c2nccc3cccc(c32)n2cccc12`: the melting point was 212 °C.

`CC(C)N(C(=O)CC=C1CSC(N)=N1)c1ccc(Cl)cc1` had a melting point of 145 to 147 °C.

`CCOC(=O)c1cn(C)c2cnc3cc(N4CCN(c5ccc(F)cc5)CC4)c(F)cc3c2c1=O`: the melting point was 300 °C.

With `Cc1ccc([N+](=O)[O-])c(C=C2NC(=O)NC2=O)c1C`, the melting point was 293 to 295 °C.

With `CCOC(=O)c1c2ccc(CC(=O)NOCC(N)=O)ccc-2c(C(=O)OCC)c1N`, the melting point lay in the range of 208 to 210 °C.

Consider `O=CN1CCC23CC(=O)CCC2C1Cc1cccc(O)c13` (centres undefined), for which the melting point was 260 to 262 °C.

Consider `Cc1nc2c(OCc3ccccc3F)cccn2c1CO`, for which the melting point was in the range of 151 to 153 °C.

In the case of `CN1C(=O)C(C)(C)N=C(c2ccccc2F)c2cc(N)ccc21`, the melting point was 190 to 191 °C.

As for `Cc1c(CC=CNC(=O)Nc2ccccc2)[nH]c(=O)c2c1ccc1nc(Nc3c(Cl)cccc3Cl)n(C)c12`, the melting point was > 290 °C.

With `CCOC(=O)C(=Cc1ccc(O)cc1)C(=O)CCl`, the melting point lay in the range of 92 to 95 °C.

In the case of `O=C1CC(c2cccc(OCc3ccccc3)c2)=Nc2ccc(N3CCOCC3)cc21`, the melting point is 283 to 285 °C.

As for `N#Cc1c2c(cc3ccc(O)cc13)-c1ccc(O)cc1CO2`, the melting point was > 280 °C.

`CCNCC1CCN(c2c(F)cc3c(=O)c(C(=O)O)cn(NC)c3c2F)C1` (centres undefined) had a melting point of 222 to 224 °C.

`Cc1cc(C)n(-c2nc(-c3ccc(Cl)cc3)c(CCC(=O)O)o2)n1` came in with a melting point of 201 to 202 °C.

`CC(=O)Nc1ccc(S(=O)(=O)N2CCN(c3c(F)cc4c(=O)c(C(=O)O)cn(CC(C)C)c4c3F)CC2)cc1`: the melting point lay within 181 to 183 °C.

Consider `Cc1nc(N2CCN(Cc3ccc(F)cc3)C2=O)sc1C(=O)NCc1ccc(F)cc1`, for which the melting point was 177 to 178 °C.

The compound `CC(=O)CC(=O)Nc1c(C(=O)c2ccccc2)[nH]c2cc(Cl)ccc12` registered a melting point of 170 to 173 °C.

In turn, `CC(=O)NCCNc1cccc(-c2cc(-c3ccc(F)cc3O)nc(NC(=O)c3ccco3)c2C#N)c1` gave a melting point of 158 to 160 °C.

Consider `COc1ccc(OC)c2c(Nc3cccc(Br)c3)c(C#N)cnc12`, for which the melting point was 72 to 74 °C.

On to `C=CCNC(=O)c1ccc([N+](=O)[O-])cc1Br`, for which the melting point is 98 to 100 °C.

The compound `Cc1cccc(C(=O)NC(NC(=NC#N)Nc2cccnc2)C(C)(Cl)Cl)c1` (centres undefined) displayed a melting point of 171 to 172 °C.

Compound `Cc1nc(-n2cc(CCCc3ccccc3)nn2)sc1C(=O)NCc1cccnc1` displayed a melting point of 108 to 110 °C.

`Cc1ccc(C(Cl)=C(Cl)Cl)cn1` yielded a melting point of 37 to 39 °C.

The compound `Cc1c(C(=O)c2ccccc2)c(=O)n(C)c(=O)n1C` returned a melting point of 132 to 134 °C.

On to `CCCCN(CCCC)c1ccc(C=Cc2ccc(C(C#N)=C(C#N)C#N)s2)c(OC)c1`, for which the melting point fell in the range of 189 to 192 °C.

As for `CCCCc1cc(C#N)sc1-c1ccc2c(c1)C(C)(C)OC(=O)N2`, the melting point lay within 167 to 168 °C.

For `O=C1CCSc2ncccc21`, the melting point lay within 66 to 68 °C.

On to `COP(=O)(CC(O)c1c(C(C)C)nn(-c2ccccc2)c1-c1ccc(F)cc1)OC` (centres undefined), for which the melting point was 126 to 128 °C.

Take `Oc1ccc(-c2noc3ccc(O)cc23)cc1`: the melting point was 266 to 268 °C.

Consider `C=CCN(CC=C)c1nc(NC(=O)COC)n2oc(=O)nc2n1`, for which the melting point lay within 135 to 136 °C.

Consider `Cc1cccc(C)c1N1Cc2ccccc2P1(C)=O` (centres undefined), for which the melting point was in the range of 128 to 129 °C.

Turning to `OC(CN1CCNCC1)Cn1c2ccccc2c2cc(-c3ccccc3)ccc21` (centres undefined), the melting point is 120 °C.

The compound `CCOC(=O)c1ccc(OCCC2CCN(c3cc(Cl)nnc3Cl)CC2)cc1` showed a melting point of 153 to 155 °C.

The compound `C=Cc1cn(C)c2cc(-c3ccccc3Cl)c3c(c12)C(=O)NC3=O` registered a melting point of 200 to 205 °C.

On to `NC(=O)c1ccc2nc(C(=O)NCc3ccnc(OCC4CCOC4)c3)[nH]c(=O)c2c1` (centres undefined), for which the melting point was 237 to 239 °C.

Take `C[C@@H]1C(=O)C[C@H]2C[C@@H]1OO[C@@]2(C)/C=C\c1ccc(Br)c2ccccc12`: the melting point is 167 °C.

The compound `O=C1c2cc(F)ccc2OCC1C(=O)C(F)(F)F` (centres undefined) returned a melting point of 107 to 112 °C.

`COc1ccc(C2(C#N)CCC(=O)CC2)c2c1OC(C)(C)O2` came in with a melting point of 153 to 154 °C.

For `C=CC1=C(C)c2cc3[nH]c(cc4nc(cc5[nH]c(cc1n2)c(C)c5CCC(=O)OCCN(C)C)C(CCC(=O)OCCN(C)C)=C4C)c(C)c3C=C`, the melting point lay in the range of 187 to 191 °C.

`COc1ccc(NC(=O)C(Cl)Cl)cn1` came in with a melting point of 104 to 107 °C.

`CC1CC(=O)C(C(=O)c2ccc(S(C)(=O)=O)cc2[N+](=O)[O-])C(=O)C1(C)C` (centres undefined) yielded a melting point of 166 to 167 °C.

As to `CC(C)(C)C(=O)SC1CCN(C(C(=O)C2CC2)c2ccccc2F)CC1` (centres undefined), the melting point lay in the range of 88 to 89 °C.

As for `Oc1ccc(C2CCC(NCC(O)Cc3ccccc3)CC2)cc1` (racemic), the melting point was 52 to 57 °C.

On to `CC(C)=CCN1CCc2c(sc(N)c2C(=O)c2ccc(Br)cc2)C1`, for which the melting point lay within 73 to 75 °C.

With `CC(C)(C)OC(=O)NCCCN1CCC(CCCCNC(N)=NC(=O)c2nc(Cl)c(N)nc2N)CC1`, the melting point fell in the range of 98 to 102 °C.

As to `CCn1cc(-c2cccc(C(F)(F)F)c2)c(=O)n1-c1cccc(Br)c1`, the melting point was determined as 106 °C.

`COc1ccc2c(c1)S(=O)(=O)C(C(=O)NCCCCCC(=O)O)C(=O)N2C` (centres undefined) came in with a melting point of 110 to 112 °C.

The compound `CC1=C(c2ccccc2)C(=O)N(C(C)(C)c2ccccc2)CC1` registered a melting point of 108 to 109 °C.

The compound `COC(=O)c1cccc(-c2ccccc2OC2OC(C)C(O)C(O)C2O)c1` (centres undefined) displayed a melting point of 137 to 140 °C.

In the case of `Cc1onc(-c2ccccc2)c1-c1[nH]c2ccccc2c1CCN(C)C`, the melting point was 142 to 144 °C.

`c1cnc(N2CCN(Cc3n[nH]c4ccccc34)CC2)nc1` registered a melting point of 129 to 130 °C.

In turn, `CCN(C)C(=O)c1cc(C)c(C(c2cc(F)ccc2F)S(=O)(=O)c2ccc(F)cc2)cn1` (centres undefined) yielded a melting point of 165 to 167 °C.

With `CCNc1ccc(-c2c(N)nc(N)nc2CC)cc1[N+](=O)[O-]`, the melting point lay in the range of 275 to 276 °C.

Take `CCOc1cc(Cc2cnc(N)nc2N)cc2c1OC(C)(C)C=C2c1cccc(F)c1`: the melting point was in the range of 185 to 186 °C.

On to `CCCCCCCCCCN1CCC2(CC1)CSC1=C(O2)c2ccccc2C(=O)C1=O`, for which the melting point is 110 to 111 °C.

Regarding `C[C@H](Cn1ncc2ccc3c(c21)C=CCO3)O[Si](C)(C)C(C)(C)C`, the melting point lay in the range of 58 to 59 °C.

The compound `COc1sc(-c2ccc(NS(=O)(=O)c3sc4ccc(F)cc4c3C)c(S(C)(=O)=O)c2)nc1C` displayed a melting point of 216 to 217 °C.

As to `CCCCc1nc2ccccn2c(=O)c1-c1ccc(N[C@@H]2CCN(C(=O)OC(C)(C)C)C2)cc1C`, the melting point fell in the range of 162 to 168 °C.

Consider `O=C(Nc1nc2ccccc2c(=O)n1-c1ccccc1)c1ccccc1`, for which the melting point lay within 185 to 188 °C.

With `CC(=NO)C(C)(C)NCC(F)(F)CNC(C)(C)C(CCn1ccnc1[N+](=O)[O-])=NO`, the melting point fell in the range of 90 to 92 °C.

`COC(=O)C1=C(C)NC(CO)=C(C(=O)OC)C1c1cccc2c(=O)c(C)c(-c3ccccc3)oc12` (centres undefined) showed a melting point of 231 to 233 °C.

Take `Cc1cc(C2N(c3ccccc3)CCN2c2ccccc2)cc(C)c1O`: the melting point fell in the range of 166 to 167 °C.

Consider `O=c1[nH]c2ccccc2c(=O)n1CCCCN1CCC(OC(c2ccccc2)c2ccccc2)CC1`, for which the melting point was in the range of 140 to 142 °C.

Turning to `COC(=O)[C@H](Cc1ccc(O[Si](C)(C)C(C)(C)C)cc1)NC(=O)Nc1n[nH]c(=S)s1`, the melting point is 139 to 142 °C.

Regarding `CC(C)(C)c1ccc(S(=O)(=O)NCCCCOc2ccc(-n3ccnc3)cc2)cc1`, the melting point fell in the range of 138 to 140 °C.

For the compound `CCN(CC)C(=O)c1cccc(C=O)c1`, the melting point lay within 115 to 119 °C.

In turn, `Clc1ccnc(Nc2ccccc2)n1` came in with a melting point of 134 to 135 °C.

`CC(C)(CCc1ccc(Cl)c(Cl)c1)CC(=O)O` displayed a melting point of 106 to 108 °C.

Compound `CCOc1cc(C(CC(C)O)N2C(=O)c3cccc(NC(C)=O)c3C2=O)ccc1OC` (centres undefined) registered a melting point of 132 to 134 °C.

In turn, `CC(Cc1c[nH]c2ccccc12)(NC(=O)OCC1c2ccccc2-c2ccccc21)C(=O)NC(CO)Cc1ccccc1` (centres undefined) had a melting point of 89 to 93 °C.

The compound `CCCc1c(CS(=O)Cc2ccc(-c3nnn[nH]3)cc2)ccc(C(C)=O)c1O` (centres undefined) showed a melting point of 112 to 116 °C.

`COC(=O)C(CCSC)NC(=O)c1ccc(NC(=O)Cc2cn(C)cn2)cc1-c1ccccc1` (centres undefined) gave a melting point of 69 to 70 °C.

In the case of `Cc1nc2cc(NC(=O)c3cc4cc(C(F)(F)F)ccc4n3Cc3cccc(F)c3)ccn2c1C`, the melting point was in the range of 280 to 281 °C.

The compound `O=C(O)C1=Cc2cc(C(F)(F)F)ccc2OC1C(F)(F)F` (centres undefined) showed a melting point of 144 to 145 °C.

Compound `N#Cc1ccc(N2C(=O)[C@@H]3[C@H](O)CCN3C2=O)c2c1OCCO2` yielded a melting point of 196 to 197 °C.

Turning to `CS(=O)(=O)c1ccc(-c2nn3c4c(oc3c2-c2ccc(F)cc2)CCCC4)cc1`, the melting point lay in the range of 183 to 184 °C.

The compound `O=C1CCCN(C(=O)c2ccc([N+](=O)[O-])cc2Cl)c2ncccc21` gave a melting point of 162 to 164 °C.
